One substance from patent publication US12611423B2, “Medical use of tafoxiparin” (DILAFOR AB, priority 2022, dated 2026) can be followed below.

Assay [1] relates to factor IIa. Briefly: antifactor IIa activity of tafoxiparin. It is filed as biochemical. The following applies: definition of tafoxiparin.
In assay [2] the test system is factor Xa. Briefly: antifactor Xa activity of tafoxiparin. It is filed as biochemical. Particulars: definition of tafoxiparin.
factor Xa, sequence (P01008 33-464 partner): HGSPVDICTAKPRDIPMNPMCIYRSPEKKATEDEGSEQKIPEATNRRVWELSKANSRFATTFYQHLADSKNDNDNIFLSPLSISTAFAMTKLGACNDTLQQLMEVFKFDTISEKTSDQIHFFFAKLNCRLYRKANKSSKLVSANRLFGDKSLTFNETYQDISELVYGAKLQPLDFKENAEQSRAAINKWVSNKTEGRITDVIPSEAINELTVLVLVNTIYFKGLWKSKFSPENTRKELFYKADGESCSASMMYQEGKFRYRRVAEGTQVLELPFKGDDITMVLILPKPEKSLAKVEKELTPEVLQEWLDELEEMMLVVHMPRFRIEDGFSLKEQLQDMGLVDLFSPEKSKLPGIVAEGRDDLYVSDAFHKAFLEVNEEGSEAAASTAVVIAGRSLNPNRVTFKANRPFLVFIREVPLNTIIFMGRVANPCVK
factor Xa, sequence (P00742 235-488 limits assumed, further chain): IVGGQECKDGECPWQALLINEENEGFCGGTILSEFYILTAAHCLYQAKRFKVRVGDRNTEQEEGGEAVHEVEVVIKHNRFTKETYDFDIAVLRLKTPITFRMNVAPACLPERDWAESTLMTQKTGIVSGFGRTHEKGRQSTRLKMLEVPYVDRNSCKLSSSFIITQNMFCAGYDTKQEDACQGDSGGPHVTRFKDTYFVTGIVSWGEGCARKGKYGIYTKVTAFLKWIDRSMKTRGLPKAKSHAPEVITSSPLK

factor IIa, sequence (P01008 33-464): as the sequence (P01008 33-464 partner) above

For tafoxiparin, the “antifactor Ila activity” value in assay [1] is given as “less than 10 IU/mg”. Also, the “antifactor Xa activity” value in assay [2] is recorded as “less than 10 IU/mg”.
